Data published in patent US12384800B2, “Antitumoral compounds” (priority 2017, dated 2025).

Tests used:
[1] = MTMD (Maximum Tolerated Multiple Dose) determination, iv weekly x 3; assay type: in vivo; conditions: mice; iv/Q7d × 3
From the text: Female CD-1 or Athymic Nude-Fox1 nu/nu mice (Envigo) were utilized for all experiments. […] Animals were acclimated for five days prior to being individually tattoo-identified. Animal protocols were reviewed and approved according to the regional Institutional Animal Care and Use Committees.
Mice were randomly allocated into experimental groups and intravenously administered, once for the MTD (Maximum Tolerated Dose) determination or one administration a week during three consecutive weeks, for the MTMD (Maximum Tolerated Multiple Dose) determination study. The animals were administered with white formulation or with compound dissolved in the experimental formulation at different concentrations. The volume administered was always […]. Once administered, animals were monitored for clinical signs of systemic toxicity, changes in body weight and mortality up to 14 days after the administration.

HT1080 tumors = assay: Human fibrosarcoma xenograft, total diameter (tumor + leg)
H460 tumors = assay: Human lung (NSCLC) xenograft, tumor volume
Description: (§1) Female athymic nu/nu mice (Harlan Laboratories Models, S.L. Barcelona, Spain or Envigo, Spain) were utilized for all experiments. Animal were housed in individually ventilated cages Sealsafe® Plus, Techniplast S.P.A.), up to ten per cage on a 12-hour light-dark cycle at 21-23° C. and 40-60% humidity. […] Animals were acclimated for at least 5 days prior to tumor implantation with a tumor cell suspension.
H460 cells were maintained in vitro at 37° C. with 5% CO2 in Dulbecco's Modified Eagle's Medium (Sigma-Aldrich, Co). Culture cells were passaged every 3 to 5 days upon reaching confluence. Each animal was subcutaneously implanted (on the right flank using 26G needle and a 1 cc syringe) at 4-6 weeks of age with 5×10^6 H460 cells suspended in 0.05 mL of a solution consisting of 50% Matrigel® (Corning Incorporated Life Sciences) and 50% medium without serum or antibiotics.
(§2) Treatment tolerability was assessed by monitoring body weight evolution, clinical signs of systemic toxicity, as well as evidences of local damage in the injection site.
(§3) In Xenograft Studies with Other Cell Lines: • Tumor volume was calculated using the equation (a·b^2)/2, where a: length (longest diameter) and b: width (shortest diameter) were measured in mm by using digital caliper (Fowler Sylvac, S235PAT).
(§4) Treatments producing >20% lethality and/or 20% net body weight loss were considered toxic.
Tables and figures summarize the data obtained from complete experimental groups, i.e. those groups keeping the initial number of animals, n=8-10.

A2780 tumors = assay: Human ovarian xenograft, tumor volume
Description: as §1
Culture cells were passaged every 3 to 5 days upon reaching confluence. Each animal was subcutaneously implanted (on the right flank using 26G needle and a 1 cc syringe) at 4-6 weeks of age with 10×10^6 A2780 cells suspended in 0.05 mL of a solution consisting of 50% Matrigel® (Corning Incorporated Life Sciences) and 50% medium without serum or antibiotics.
as §2, §3, §4

MDA-MB-231 tumors = assay: Human breast xenograft, tumor volume
Description: as §1
MDA-MB-231 cells were maintained in vitro at 37° C. with 5% CO2 in Dulbecco's Modified Eagle's Medium (Sigma-Aldrich, Co). Culture cells were passaged every 3 to 5 days upon reaching confluence.
as §2, §3, §4

HGC27 tumors = assay: Human gastric xenograft, tumor volume
Description: as §1
HGC27 cells were maintained in vitro at 37° C. with 5% CO2 in Iscove's Modified Dulbecco's Medium (Sigma Aldrich, Co). Culture cells were passage every 3 to 5 days on reaching confluence. Each animal was subcutaneously implanted (on the right flank using 26G needle and a 1 cc syringe) at 4-6 weeks of age with 5×10^6 HGC-27 cells suspended in 0.05 mL of a solution consisting of 50% Matrigel® (Corning Incorporated Life Sciences), 50% medium without serum or antibiotics.
as §2, §3, §4

COc1ccc2oc3c(c2c1)CCN[C@]31CS[C@@H]2c3c(OC(C)=O)c(C)c4c(c3[C@H](COC1=O)N1[C@@H]2[C@H]2c3c(cc(C)c(OC)c3O)C[C@@H]([C@@H]1O)N2C)OCO4 [Compound 35]
MTMD [1]: 0.25 mg/kg

COc1c(C)cc2c(c1O)[C@@H]1[C@@H]3[C@@H]4SC[C@]5(N[C@H](CO)Cc6c5oc5ccccc65)C(=O)OC[C@@H](c5c6c(c(C)c(OC(C)=O)c54)OCO6)N3[C@@H](O)[C@H](C2)N1C [Compound 39-S]
Total diameter (tumor + leg) (HT1080 tumors; Day 2): 7.9 mm
Total diameter (tumor + leg) (HT1080 tumors; Day 5): 6.4 mm
Total diameter (tumor + leg) (HT1080 tumors; Day 7): 6.8 mm
Total diameter (tumor + leg) (HT1080 tumors; Day 9): 6.9 mm
Total diameter (tumor + leg) (HT1080 tumors; Day 12): 6.6 mm
Total diameter (tumor + leg) (HT1080 tumors; Day 14): 6.4 mm
Total diameter (tumor + leg) (HT1080 tumors; Day 16): 6.8 mm
Total diameter (tumor + leg) (HT1080 tumors; Day 19): 7.0 mm
Total diameter (tumor + leg) (HT1080 tumors; Day 21): 7.0 mm
Total diameter (tumor + leg) (HT1080 tumors; Day 23): 8.5 mm
Total diameter (tumor + leg) (HT1080 tumors; Day 27): 10.8 mm
Total diameter (tumor + leg) (HT1080 tumors; Day 33): 14.3 mm
Total diameter (tumor + leg) (HT1080 tumors; Day 35): 15.3 mm
Total diameter (tumor + leg) (HT1080 tumors; Day 37): 18.0 mm
Median Tumor Volume (H460 tumors; Day 2): 314.4 mm^3
Median Tumor Volume (H460 tumors; Day 5): 584.1 mm^3
Median Tumor Volume (H460 tumors; Day 7): 831.2 mm^3
Median Tumor Volume (H460 tumors; Day 9): 841.0 mm^3
Median Tumor Volume (H460 tumors; Day 12): 1008.0 mm^3
Median Tumor Volume (H460 tumors; Day 14): 1309.8 mm^3
Median Tumor Volume (H460 tumors; Day 16): 1470.0 mm^3
Median Tumor Volume (H460 tumors; Day 19): 2025.0 mm^3
Median Tumor Volume (A2780 tumors; Day 2): 206.5 mm^3
Median Tumor Volume (A2780 tumors; Day 5): 163.4 mm^3
Median Tumor Volume (A2780 tumors; Day 7): 298.6 mm^3
Median Tumor Volume (A2780 tumors; Day 9): 317.4 mm^3
Median Tumor Volume (A2780 tumors; Day 12): 378.2 mm^3
Median Tumor Volume (A2780 tumors; Day 14): 668.5 mm^3
Median Tumor Volume (A2780 tumors; Day 16): 853.5 mm^3
Median Tumor Volume (A2780 tumors; Day 19): 1415.5 mm^3
Median Tumor Volume (A2780 tumors; Day 21): 1519.2 mm^3
Median Tumor Volume (A2780 tumors; Day 23): 1666.0 mm^3
Median Tumor Volume (A2780 tumors; Day 30): 2025.0 mm^3
Median Tumor Volume (MDA-MB-231 tumors; Day 2): 209.3 mm^3
Median Tumor Volume (MDA-MB-231 tumors; Day 5): 290.9 mm^3
Median Tumor Volume (MDA-MB-231 tumors; Day 7): 301.8 mm^3
Median Tumor Volume (MDA-MB-231 tumors; Day 9): 300.8 mm^3
Median Tumor Volume (MDA-MB-231 tumors; Day 12): 278.7 mm^3
Median Tumor Volume (MDA-MB-231 tumors; Day 14): 249.7 mm^3
Median Tumor Volume (MDA-MB-231 tumors; Day 16): 243.6 mm^3
Median Tumor Volume (MDA-MB-231 tumors; Day 19): 248.3 mm^3
Median Tumor Volume (MDA-MB-231 tumors; Day 21): 250.0 mm^3
Median Tumor Volume (MDA-MB-231 tumors; Day 23): 260.3 mm^3
Median Tumor Volume (MDA-MB-231 tumors; Day 26): 304.9 mm^3
Median Tumor Volume (MDA-MB-231 tumors; Day 28): 337.1 mm^3
Median Tumor Volume (MDA-MB-231 tumors; Day 30): 451.3 mm^3
Median Tumor Volume (MDA-MB-231 tumors; Day 33): 584.1 mm^3
Median Tumor Volume (MDA-MB-231 tumors; Day 35): 683.4 mm^3
Median Tumor Volume (MDA-MB-231 tumors; Day 37): 784.7 mm^3
Median Tumor Volume (MDA-MB-231 tumors; Day 40): 937.4 mm^3
Median Tumor Volume (MDA-MB-231 tumors; Day 42): 1060.5 mm^3
Median Tumor Volume (MDA-MB-231 tumors; Day 44): 1170.5 mm^3
Median Tumor Volume (MDA-MB-231 tumors; Day 47): 1112.9 mm^3
Median Tumor Volume (MDA-MB-231 tumors; Day 49): 1138.6 mm^3
Median Tumor Volume (MDA-MB-231 tumors; Day 51): 1283.2 mm^3
Median Tumor Volume (MDA-MB-231 tumors; Day 54): 1415.1 mm^3
Median Tumor Volume (MDA-MB-231 tumors; Day 56): 1518.7 mm^3
Median Tumor Volume (MDA-MB-231 tumors; Day 58): 1728.5 mm^3
Median Tumor Volume (MDA-MB-231 tumors; Day 61): 2017.9 mm^3
Median Tumor Volume (HGC27 tumors; Day 2): 356.3 mm^3
Median Tumor Volume (HGC27 tumors; Day 5): 469.7 mm^3
Median Tumor Volume (HGC27 tumors; Day 7): 467.8 mm^3
Median Tumor Volume (HGC27 tumors; Day 9): 575.2 mm^3
Median Tumor Volume (HGC27 tumors; Day 12): 611.1 mm^3
Median Tumor Volume (HGC27 tumors; Day 14): 637.3 mm^3
Median Tumor Volume (HGC27 tumors; Day 16): 690.4 mm^3
Median Tumor Volume (HGC27 tumors; Day 19): 701.8 mm^3
Median Tumor Volume (HGC27 tumors; Day 21): 697.4 mm^3
Median Tumor Volume (HGC27 tumors; Day 23): 715.5 mm^3
Median Tumor Volume (HGC27 tumors; Day 26): 898.1 mm^3
Median Tumor Volume (HGC27 tumors; Day 28): 1163.4 mm^3
Median Tumor Volume (HGC27 tumors; Day 30): 1409.3 mm^3
Median Tumor Volume (HGC27 tumors; Day 33): 1450.5 mm^3
Median Tumor Volume (HGC27 tumors; Day 35): 1708.5 mm^3
Median Tumor Volume (HGC27 tumors; Day 37): 1804.4 mm^3
Median Tumor Volume (HGC27 tumors; Day 40): 2075.2 mm^3
